In ChEMBL document CHEMBL1146245, “Antitumor agents. 258. Syntheses and evaluation of dietary antioxidant--taxoid conjugates as novel cytotoxic agents” (2007):
In brackets after ≈: the same amount, converted by molar mass. Activity calls are given as the source filed them. No cut-off for these calls is given here.

Columns and labels:
Type in all cases: functional
1A9 = assay: Cytotoxicity against human 1A9 cells by sulforhodamine B assay; settings: for EC50: read-out: ED50 (the source's name)
KB = assay: Cytotoxicity against human KB cells by sulforhodamine B assay; settings: for EC50: read-out: ED50 (the source's name)
[1] = Cytotoxicity against MDR human KB-VIN cells expressing P-glycoprotein; settings: for EC50: KBVIN, read-out: ED50 (the source's name)
A549 = assay: Cytotoxicity against human A549 cells; settings: for EC50: read-out: ED50 (the source's name)
HCT-8 = assay: Cytotoxicity against human HCT8 cells
A-431 = assay: Cytotoxicity against human A431 cells; settings: for EC50: read-out: ED50 (the source's name)

## CC(=O)O[C@H]1C(=O)[C@@]2(C)[C@H]([C@H](OCc3ccccc3)[C@]3(O)C[C@H](OC(=O)[C@H](OC(=O)CCC(=O)Oc4c(C)c(C)c5c(c4C)OC(C)(C)CC5)[C@@H](NCc4ccccc4)c4ccccc4)C(C)=C1C3(C)C)[C@]1(OC(C)=O)CO[C@@H]1C[C@@H]2O
1A9
  EC50: 0.2 mg/L (≈ 0.177 µM)
KB
  EC50: 0.94 mg/L (≈ 0.833 µM)

## CC(=O)O[C@H]1C(=O)[C@]2(C)[C@@H](OC(=O)CCC(=O)O)C[C@H]3OC[C@@]3(OC(C)=O)[C@H]2[C@H](OCc2ccccc2)[C@]2(O)C[C@H](OC(=O)[C@H](OC(=O)CCC(=O)Oc3c(C)c(C)c4c(c3C)OC(C)(CCC[C@@H](C)CCC[C@@H](C)CCCC(C)C)CC4)[C@@H](NCc3ccccc3)c3ccccc3)C(C)=C1C2(C)C (stereo partly drawn) [listing 1 of 2 here]
1A9
  Activity: inactive
[1]
  Activity: inactive
A549
  Activity: inactive
HCT-8
  Activity: inactive
KB
  Activity: inactive

## CC(=O)O[C@H]1C(=O)[C@]2(C)[C@@H](OC(=O)CCC(=O)O)C[C@H]3OC[C@@]3(OC(C)=O)[C@H]2[C@H](OCc2ccccc2)[C@]2(O)C[C@H](OC(=O)[C@H](OC(=O)CCC(=O)Oc3c(C)c(C)c4c(c3C)OC(C)(CCC[C@@H](C)CCC[C@@H](C)CCCC(C)C)CC4)[C@@H](NCc3ccccc3)c3ccccc3)C(C)=C1C2(C)C (stereo partly drawn) [listing 2 of 2 here]
A-431
  EC50: 0.1 mg/L (≈ 0.0695 µM)

## CC(=O)O[C@H]1C(=O)[C@]2(C)[C@@H](OC(=O)CN(C)C)C[C@H]3OC[C@@]3(OC(C)=O)[C@H]2[C@H](OCc2ccccc2)[C@]2(O)C[C@H](OC(=O)[C@H](OC(=O)CCC(=O)Oc3c(C)c(C)c4c(c3C)OC(C)(CCC[C@@H](C)CCC[C@@H](C)CCCC(C)C)CC4)[C@@H](NCc3ccccc3)c3ccccc3)C(C)=C1C2(C)C.CS(=O)(=O)O (stereo partly drawn)
A-431
  EC50: 0.1 mg/L

## CC(=O)O[C@H]1C(=O)[C@@]2(C)[C@H]([C@H](OCc3ccccc3)[C@]3(O)C[C@H](OC(=O)[C@H](OC(=O)CCC(=O)Oc4ccc5c(C)cc(=O)oc5c4)[C@@H](NCc4ccccc4)c4ccccc4)C(C)=C1C3(C)C)[C@]1(OC(C)=O)CO[C@@H]1C[C@@H]2O
1A9
  EC50: 0.005 mg/L (≈ 0.00461 µM)
KB
  EC50: 0.14 mg/L (≈ 0.129 µM)

## CC(=O)O[C@H]1C(=O)[C@]2(C)[C@@H](OC(=O)CN(C)C)C[C@H]3OC[C@@]3(OC(C)=O)[C@H]2[C@H](OCc2ccccc2)[C@]2(O)C[C@H](OC(=O)[C@H](OC(=O)CCC(=O)Oc3c(C)c(C)c4c(c3C)OC(C)(CCC[C@@H](C)CCC[C@@H](C)CCCC(C)C)CC4)[C@@H](NCc3ccccc3)c3ccccc3)C(C)=C1C2(C)C (stereo partly drawn) [listing 1 of 2 here]
1A9
  Activity: inactive
[1]
  Activity: inactive
A549
  Activity: inactive
HCT-8
  Activity: inactive
KB
  Activity: inactive

## CC(=O)O[C@H]1C(=O)[C@@]2(C)[C@H]([C@H](OC(=O)c3ccccc3)[C@]3(O)C[C@H](OC(=O)[C@H](O)[C@@H](NC(=O)c4ccccc4)c4ccccc4)C(C)=C1C3(C)C)[C@]1(OC(C)=O)CO[C@@H]1C[C@@H]2O [PACLITAXEL]
1A9
  EC50: 0.001 mg/L (≈ 0.00117 µM)
[1]
  EC50: 0.2 mg/L (≈ 0.234 µM)
A549
  EC50: 0.02 mg/L (≈ 0.0234 µM)
A-431
  EC50: 0.01 mg/L (≈ 0.0117 µM)
HCT-8; read-out: ED50 (the source's name)
  EC50: 0.06 mg/L (≈ 0.0703 µM)
KB
  EC50: 0.002 mg/L (≈ 0.00234 µM)

## COc1cc(/C=C/C(=O)CC(=O)/C=C/c2ccc(O)c(OC)c2)ccc1O [CURCUMIN]
1A9
  Activity: inactive
[1]
  Activity: inactive
A549
  Activity: inactive
A-431
  EC50: 0.75 mg/L (≈ 2.04 µM)
HCT-8
  Activity: inactive
KB
  Activity: inactive

## CCN(CC)CCC(=O)O[C@H]1C[C@H]2OC[C@@]2(OC(C)=O)[C@H]2[C@H](OCc3ccccc3)[C@]3(O)C[C@H](OC(=O)[C@H](OC(=O)CCC(=O)Oc4c(C)c(C)c5c(c4C)OC(C)(CCC[C@@H](C)CCC[C@@H](C)CCCC(C)C)CC5)[C@@H](NCc4ccccc4)c4ccccc4)C(C)=C([C@@H](OC(C)=O)C(=O)[C@]12C)C3(C)C (stereo in doubt; 27)
1A9
  Activity: inactive
[1]
  Activity: inactive
A549
  Activity: inactive
A-431
  Activity: inactive
HCT-8
  Activity: inactive
KB
  Activity: inactive

## COc1cc(/C=C/C(C)=O)ccc1OC(=O)CCC(=O)O[C@@H](C(=O)O[C@H]1C[C@@]2(O)[C@@H](OCc3ccccc3)[C@@H]3[C@]4(OC(C)=O)CO[C@@H]4C[C@H](O)[C@@]3(C)C(=O)[C@H](OC(C)=O)C(=C1C)C2(C)C)[C@@H](NCc1ccccc1)c1ccccc1
1A9
  EC50: 0.005 mg/L (≈ 0.00454 µM)
KB
  EC50: 0.005 mg/L (≈ 0.00454 µM)

## CC(=O)O[C@H]1C(=O)[C@]2(C)[C@@H](OC(=O)CCC(=O)O)C[C@H]3OC[C@@]3(OC(C)=O)[C@H]2[C@H](OCc2ccccc2)[C@]2(O)C[C@H](OC(=O)[C@H](OC(=O)CCC(=O)Oc3c(C)c(C)c4c(c3C)OC(C)(CCC[C@@H](C)CCC[C@@H](C)CCCC(C)C)CC4)[C@@H](NCc3ccccc3)c3ccccc3)C(C)=C1C2(C)C.CCN(CC)CC (stereo partly drawn)
A-431
  EC50: 0.2 mg/L

## CC(=O)O[C@H]1C(=O)[C@@]2(C)[C@H]([C@H](OCc3ccccc3)[C@]3(O)C[C@H](OC(=O)[C@H](OC(=O)CCC(=O)Oc4ccc5c(=O)c(O)c(-c6ccccc6)oc5c4)[C@@H](NCc4ccccc4)c4ccccc4)C(C)=C1C3(C)C)[C@]1(OC(C)=O)CO[C@@H]1C[C@@H]2O
1A9
  EC50: 0.13 mg/L (≈ 0.112 µM)
KB
  EC50: 0.26 mg/L (≈ 0.224 µM)

## CC(=O)O[C@H]1C(=O)[C@]2(C)[C@@H](OC(=O)CCN3CCCCC3)C[C@H]3OC[C@@]3(OC(C)=O)[C@H]2[C@H](OCc2ccccc2)[C@]2(O)C[C@H](OC(=O)[C@H](OC(=O)CCC(=O)Oc3c(C)c(C)c4c(c3C)OC(C)(CCC[C@@H](C)CCC[C@@H](C)CCCC(C)C)CC4)[C@@H](NCc3ccccc3)c3ccccc3)C(C)=C1C2(C)C (stereo partly drawn)
1A9
  Activity: inactive
[1]
  Activity: inactive
A549
  Activity: inactive
A-431
  Activity: inactive
HCT-8
  Activity: inactive
KB
  Activity: inactive

## CC(=O)O[C@H]1C(=O)[C@]2(C)[C@@H](OC(=O)CN(C)C)C[C@H]3OC[C@@]3(OC(C)=O)[C@H]2[C@H](OCc2ccccc2)[C@]2(O)C[C@H](OC(=O)[C@H](OC(=O)CCC(=O)Oc3c(C)c(C)c4c(c3C)OC(C)(C)CC4)[C@@H](NCc3ccccc3)c3ccccc3)C(C)=C1C2(C)C
1A9
  EC50: 1.01 mg/L (≈ 0.832 µM)
KB
  EC50: 9.79 mg/L (≈ 8.07 µM)

## COc1cccc(/C=C\C(C)=O)c1OC(=O)CCC(=O)O[C@@H](C(=O)O[C@H]1C[C@@]2(O)[C@@H](OCc3ccccc3)[C@@H]3[C@]4(OC(C)=O)CO[C@@H]4C[C@H](OC(=O)CN(C)C)[C@@]3(C)C(=O)[C@H](OC(C)=O)C(=C1C)C2(C)C)[C@@H](NCc1ccccc1)c1ccccc1
1A9
  EC50: 0.19 mg/L (≈ 0.16 µM)
KB
  EC50: 0.34 mg/L (≈ 0.287 µM)

## COc1cc(/C=C/C(=O)CC(=O)/C=C/c2ccc(OC(=O)CCC(=O)O[C@@H](C(=O)O[C@H]3C[C@@]4(O)[C@@H](OCc5ccccc5)[C@@H]5[C@]6(OC(C)=O)CO[C@@H]6C[C@H](O)[C@@]5(C)C(=O)[C@H](OC(C)=O)C(=C3C)C4(C)C)[C@@H](NCc3ccccc3)c3ccccc3)c(OC)c2)ccc1O
1A9
  EC50: 0.03 mg/L (≈ 0.0235 µM)
[1]
  EC50: 0.2 mg/L (≈ 0.157 µM)
A549
  EC50: 0.03 mg/L (≈ 0.0235 µM)
A-431
  EC50: 0.03 mg/L (≈ 0.0235 µM)
HCT-8
  Activity: inactive
KB
  EC50: 0.01 mg/L (≈ 0.00783 µM)

## CC(=O)O[C@H]1C(=O)[C@@]2(C)[C@H]([C@H](OCc3ccccc3)[C@]3(O)C[C@H](OC(=O)[C@H](OC(=O)CCC(=O)Oc4cc(O)c5c(=O)cc(-c6ccccc6)oc5c4)[C@@H](NCc4ccccc4)c4ccccc4)C(C)=C1C3(C)C)[C@]1(OC(C)=O)CO[C@@H]1C[C@@H]2O
1A9
  EC50: 0.2 mg/L (≈ 0.172 µM)
KB
  EC50: 0.47 mg/L (≈ 0.404 µM)

## CC(=O)O[C@H]1C(=O)[C@@]2(C)[C@H]([C@H](OCc3ccccc3)[C@]3(O)C[C@H](OC(=O)[C@H](OC(=O)CCC(=O)Oc4c(C)c(C)c5c(c4C)OC(C)(CCC[C@@H](C)CCC[C@@H](C)CCCC(C)C)CC5)[C@@H](NCc4ccccc4)c4ccccc4)C(C)=C1C3(C)C)[C@]1(OC(C)=O)CO[C@@H]1C[C@@H]2O (stereo partly drawn)
1A9
  Activity: inactive
[1]
  Activity: inactive
A549
  Activity: inactive
A-431
  EC50: 0.1 mg/L (≈ 0.0747 µM)
HCT-8
  Activity: inactive
KB
  Activity: inactive

## CC(=O)O[C@H]1C(=O)[C@@]2(C)[C@H]([C@H](OCc3ccccc3)[C@]3(O)C[C@H](OC(=O)[C@H](OC(=O)/C=C(C)/C=C/C=C(C)/C=C/C4=C(C)CCCC4(C)C)[C@@H](NCc4ccccc4)c4ccccc4)C(C)=C1C3(C)C)[C@]1(OC(C)=O)CO[C@@H]1C[C@@H]2O
1A9
  EC50: 0.49 mg/L (≈ 0.442 µM)
KB
  EC50: 0.2 mg/L (≈ 0.18 µM)

## CC(=O)O[C@H]1C(=O)[C@]2(C)[C@@H](OC(=O)CN(C)C)C[C@H]3OC[C@@]3(OC(C)=O)[C@H]2[C@H](OCc2ccccc2)[C@]2(O)C[C@H](OC(=O)[C@H](OC(=O)CCC(=O)Oc3ccc4c(=O)c(O)c(-c5ccccc5)oc4c3)[C@@H](NCc3ccccc3)c3ccccc3)C(C)=C1C2(C)C
1A9
  EC50: 0.11 mg/L (≈ 0.0882 µM)
KB
  EC50: 0.09 mg/L (≈ 0.0722 µM)

## COc1cc(/C=C/C(C)=O)ccc1OC(=O)CCC(=O)O[C@@H](C(=O)O[C@H]1C[C@@]2(O)[C@@H](OCc3ccccc3)[C@@H]3[C@]4(OC(C)=O)CO[C@@H]4C[C@H](OC(=O)CN(C)C)[C@@]3(C)C(=O)[C@H](OC(C)=O)C(=C1C)C2(C)C)[C@@H](NCc1ccccc1)c1ccccc1
1A9
  EC50: 0.63 mg/L (≈ 0.531 µM)
KB
  EC50: 0.7 mg/L (≈ 0.591 µM)

## VITAMIN E
1A9
  Activity: inactive
[1]
  Activity: inactive
A549
  Activity: inactive
A-431
  ED50: 0.75 mg/L
HCT-8
  Activity: inactive
KB
  Activity: inactive

## CC(=O)O[C@H]1C(=O)[C@]2(C)[C@@H](OC(=O)CN(C)C)C[C@H]3OC[C@@]3(OC(C)=O)[C@H]2[C@H](OCc2ccccc2)[C@]2(O)C[C@H](OC(=O)[C@H](OC(=O)CCC(=O)Oc3c(C)c(C)c4c(c3C)OC(C)(CCC[C@@H](C)CCC[C@@H](C)CCCC(C)C)CC4)[C@@H](NCc3ccccc3)c3ccccc3)C(C)=C1C2(C)C (stereo partly drawn) [listing 2 of 2 here]
A-431
  EC50: 0.2 mg/L (≈ 0.14 µM)

## CC(=O)O[C@H]1C(=O)[C@]2(C)[C@@H](OC(=O)CN(C)C)C[C@H]3OC[C@@]3(OC(C)=O)[C@H]2[C@H](OCc2ccccc2)[C@]2(O)C[C@H](OC(=O)[C@H](OC(=O)/C=C(C)/C=C/C=C(C)/C=C/C3=C(C)CCCC3(C)C)[C@@H](NCc3ccccc3)c3ccccc3)C(C)=C1C2(C)C
1A9
  EC50: 4.47 mg/L (≈ 3.75 µM)
KB
  EC50: 7.65 mg/L (≈ 6.41 µM)
